Experimental data reported in patent publication US8772500B2, “TRPV3 modulators” (AbbVie Inc., priority 2011, dated 2014).

Legend:
[1] = In vitro human microsomal stability assay; type: in vitro ADME
Protocol: (§1) Test compounds were evaluated for metabolic stability in an in vitro rat microsomal stability assay using rat (Sprague-Dawley, from BD Biosciences) liver microsomes and/or an in vitro human microsomal stability assay using human (Xenotech) liver microsomes. […] Incubations were carried out at 37° C. with a final incubation volume of 135 μL. […] A 1.5 μL aliquot of reduced nicotine adenine disphosphonucleotide (NADPH) (Chem-Impex Int'L Inc., Lot 12532024) was also added to the time-zero plates.

[2] = In vitro rat microsomal stability assay; type: in vitro ADME, rat (Sprague-Dawley)
Protocol: as §1

[3] = Sprague-Dawley, rat, 0.5 h, 0.5 μM, pH 7.4
[4] = 0.5 μM substrate, 0.25 mg/mL microsomal protein, pH 7.4, 37° C., NADPH, 30 minutes

Row | SMILES | HUMAN MICROSOMAL STABILITY (% REMAINING AFTER 30 MINUTES) ([1]; human, 0.5 h, 0.5 μM, pH 7.4) [%] | RAT MICROSOMAL STABILITY (% REMAINING AFTER 30 MINUTES) [2, 3] [%] | HUMAN MICROSOMAL STABILITY (% REMAINING AFTER 30 MINUTES) [1, 4] [%] | RAT MICROSOMAL STABILITY (% REMAINING AFTER 30 MINUTES) [2, 4] [%]
1 | OC1CC(c2ccc(OC(F)(F)F)cc2)(C(O)c2ccccn2)C1 (single isomer, unassigned) [Example 131] | >85 | 50 | – | –
2 | O=C1CC(c2ccnc(C(F)(F)F)c2)([C@H](O)c2ccccn2)C1 [Example 299, 3-[(S)-hydroxy(pyridin-2-yl)methyl]-3-[2-(trifluoromethyl)pyridin-4-yl]cyclobutanone] | >85 | >85 | – | –
3 | CN1CCC(c2ccc(C(F)(F)F)cc2)(C(O)c2ccccn2)CC1 (stereo not drawn) [Example 143, {1-methyl-4-[4-(trifluoromethyl)phenyl]piperidin-4-yl}(pyridin-2-yl)-methanol] | – | – | >85 | 80
4 | OC(C1CCCc2cccnc21)C1(c2cccc(OC(F)(F)F)c2)CCC1 (stereo not drawn) [Example 187, (anti)-5,6,7,8-tetrahydroquinolin-8-yl{1-[3-(trifluoromethoxy)phenyl]-cyclobutyl}methanol] | <0.01 | <0.01 | – | –
5 | OC1CC(c2ccc(Cl)c(Cl)c2)(C(O)c2ncccn2)C1 (single isomer, unassigned) [Example 313] | 81 | >85 | – | –
6 | OC(c1ccccn1)C1(c2ccccn2)CCC1 (stereo not drawn) [Example 19, pyridin-2-yl(1-pyridin-2-ylcyclobutyl)methanol] | >85 | 76 | – | –
7 | OC(C1CCc2cccnc21)C1(c2ccccc2OC(F)(F)F)CCC1 (stereo not drawn) [Example 193, (anti)-6,7-dihydro-5H-cyclopenta[b]pyridin-7-yl{1-[2-(trifluoromethoxy)-phenyl]cyclobutyl}methanol] | 0.02 | <0.01 | – | –
8 | OC(C1CCCc2cccnc21)C1(c2ccc(Cl)c(Cl)c2)CCC1 (single isomer, unassigned) [Example 182, (syn)-[1-(3,4-dichlorophenyl)cyclobutyl][5,6,7,8-tetrahydroquinolin-8-yl]-methanol] | <0.01 | <0.01 | – | –
9 | OC(c1ccccn1)C1(c2ccc(Cl)c(Cl)c2)CCCCC1 (stereo not drawn) [Example 43, [1-(3,4-dichlorophenyl)cyclohexyl](pyridin-2-yl)methanol] | 1.8 | 0.31 | – | –
10 | OC(c1ccccn1)C1(c2ccc(C(F)(F)F)cc2)CCNCC1 (stereo not drawn) [Example 147, pyridin-2-yl{4-[4-(trifluoromethyl)phenyl]piperidin-4-yl}methanol] | >85 | 79 | – | –
11 | OC(C1CCc2cccnc21)C1(c2ccccc2C(F)(F)F)CCC1 (stereo not drawn) [Example 197, (anti)-6,7-dihydro-5H-cyclopenta[b]pyridin-7-yl{1-[2-(trifluoromethyl)-phenyl]cyclobutyl}methanol] | 0.26 | <0.01 | – | –
12 | OC(C1CCc2cccnc21)C1(c2ccc(F)c(F)c2)CCC1 (stereo not drawn) [Example 172, (syn)-[1-(3,4-difluorophenyl)cyclobutyl][6,7-dihydro-5H-cyclopenta[b]-pyridin-7-yl]methanol] | 2.4 | <0.01 | – | –
13 | OC(c1ccccn1)C1(c2ccnc(C(F)(F)F)c2)CC2(C1)OCCO2 (stereo not drawn) [Example 297, pyridin-2-yl{2-[2-(trifluoromethyl)pyridin-4-yl]-5,8-dioxaspiro[3.4]oct-2-yl}methanol] | >85 | 2.0 | – | –
14 | OC(C1CCc2cccnc21)C1(c2ccccc2C(F)(F)F)CCC1 (stereo not drawn) [Example 198, (syn)-6,7-dihydro-5H-cyclopenta[b]pyridin-7-yl{1-[2-(trifluoromethyl)-phenyl]cyclobutyl}methanol] | 0.05 | <0.01 | – | –
15 | CN1CCC(c2ccc(Cl)c(Cl)c2)(C(O)c2ccccn2)CC1 (stereo not drawn) [Example 141, [4-(3,4-dichlorophenyl)-1-methylpiperidin-4-yl](pyridin-2-yl)methanol] | – | – | >85 | 59
16 | OC(C1CCc2cccnc21)C1(c2ccccc2OC(F)(F)F)CCC1 (stereo not drawn) [Example 194, (syn)-6,7-dihydro-5H-cyclopenta[b]pyridin-7-yl{1-[2-(trifluoromethoxy)-phenyl]cyclobutyl}methanol] | 0.08 | <0.01 | – | –
17 | O/N=C(\c1ccccn1)C1(c2ccc(Cl)c(Cl)c2)CCC1 [Example 230, (Z)-[1-(3,4-dichlorophenyl)cyclobutyl](pyridin-2-yl)methanone oxime] | 33 | 30 | – | –
18 | O=C1CC(c2cccc(OC(F)(F)F)c2)([C@H](O)c2ccccn2)C1 [Example 256, 3-[(S)-hydroxy(pyridin-2-yl)methyl]-3-[3-(trifluoromethoxy)phenyl]-cyclobutanone] | 44 | 55 | – | –
19 | Nc1cccnc1C(O)C1(c2cccc(C(F)(F)F)c2)CCC1 (stereo not drawn) [Example 120, (3-aminopyridin-2-yl){1-[3-(trifluoromethyl)phenyl]cyclobutyl}methanol] | 1.6 | <0.01 | – | –
20 | OC(C1CCc2cccnc21)C1(c2cccc(C(F)(F)F)c2)CCC1 (stereo not drawn) [Example 186, (syn)-6,7-dihydro-5H-cyclopenta[b]pyridin-7-yl{1-[3-(trifluoromethyl)-phenyl]cyclobutyl}methanol] | 0.18 | – | – | –
21 | OC1CC(c2cc(C(F)(F)F)ccn2)([C@H](O)c2ccccn2)C1 (stereo partly drawn) [Example 294, 3-[(S)-hydroxy(pyridin-2-yl)methyl]-3-[4-(trifluoromethyl)pyridin-2-yl]cyclobutanol] | >85 | >85 | – | –
22 | CC(C)(C)OC(=O)N1CCC(c2cccc(OC(F)(F)F)c2)(C(O)c2ccccn2)CC1 (stereo not drawn) [Example 158, tert-butyl 4-[hydroxy(pyridin-2-yl)methyl]-4-[3-(trifluoromethoxy)phenyl]-piperidine-1-carboxylate] | – | – | 3.7 | 0.04
23 | OC(C1CCc2cccnc21)C1(c2cccc(OC(F)(F)F)c2)CCC1 (stereo not drawn) [Example 190, (syn)-6,7-dihydro-5H-cyclopenta[b]pyridin-7-yl{1-[3-(trifluoromethoxy)-phenyl]cyclobutyl}methanol] | 3.7 | <0.01 | – | –
24 | OC(C1CCc2cccnc21)C1(c2ccc(Cl)c(Cl)c2)CCC1 (stereo not drawn) [Example 167, (anti)-[1-(3,4-dichlorophenyl)cyclobutyl][6,7-dihydro-5H-cyclopenta[b]-pyridin-7-yl]methanol] | 9.5 | <0.01 | – | –
25 | CC(C)(C)OC(=O)N1CCC(c2ccc(OC(F)(F)F)cc2)(C(O)c2ccccn2)CC1 (stereo not drawn) [Example 157, tert-butyl 4-[hydroxy(pyridin-2-yl)methyl]-4-[4-(trifluoromethoxy)phenyl]-piperidine-1-carboxylate] | 28 | 0.93 | – | –
26 | OC(C1CCCc2cccnc21)C1(c2ccccc2OC(F)(F)F)CCC1 (stereo not drawn) [Example 192, (syn)-5,6,7,8-tetrahydroquinolin-8-yl{1-[2-(trifluoromethoxy)phenyl]-cyclobutyl}methanol] | <0.01 | <0.01 | – | –
27 | O=C1CC(c2cccc(C(F)(F)F)c2)([C@H](O)c2ccccn2)C1 [Example 241, 3-[(S)-hydroxy(pyridin-2-yl)methyl]-3-[3-(trifluoromethyl)phenyl]-cyclobutanone] | 66 | 59 | – | –
28 | O=C1CC(c2cncc(C(F)(F)F)c2)([C@H](O)c2ccccn2)C1 [Example 296, 3-[(S)-hydroxy(pyridin-2-yl)methyl]-3-[5-(trifluoromethyl)pyridin-3-yl]cyclobutanone] | 67 | 12 | – | –
29 | OC(c1ccccn1)C1(C2CCOCC2)CCC1 (stereo not drawn) [Example 239, pyridin-2-yl[1-(tetrahydro-2H-pyran-4-yl)cyclobutyl]methanol] | 57 | 0.072 | – | –
